Experimental data published in PubChem BioAssay (NCI).
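Assay format: 96-well plates, 48-hour exposure. TGI denotes the concentration required for complete inhibition of growth.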

Experiments:
Assay in all cases: inhibition of tumour cell growth, NCI panel, 48 h
[1] = tested on: 786-0 renal
[2] = tested on: A498 renal
[3] = tested on: A549 NSCLC
[4] = tested on: ACHN renal
[5] = tested on: CAKI-1 renal
[6] = tested on: CCRF-CEM leukemia
[7] = tested on: COLO 205 colon
[8] = tested on: DU-145 prostate
[9] = tested on: HCC-2998 colon
[10] = tested on: HCT-116 colon
[11] = tested on: HL-60(TB) leukemia
[12] = tested on: HOP-62 NSCLC
[13] = tested on: HOP-92 NSCLC
[14] = tested on: HS 578T breast
[15] = tested on: HT29 colon
[16] = tested on: K-562 leukemia
[17] = tested on: KM12 colon
[18] = tested on: LOX IMVI melanoma
[19] = tested on: M14 melanoma
[20] = tested on: MCF7 breast
[21] = tested on: MDA-MB-231 breast
[22] = tested on: MDA-MB-435
[23] = tested on: MDA-N
[24] = tested on: MOLT-4 leukemia
[25] = tested on: NCI-H226 lung
[26] = tested on: NCI-H23 lung
[27] = tested on: NCI-H460 lung
[28] = tested on: NCI/ADR-RES ovarian
[29] = tested on: OVCAR-3 ovarian
[30] = tested on: OVCAR-4 ovarian
[31] = tested on: OVCAR-5 ovarian
[32] = tested on: OVCAR-8 ovarian
[33] = tested on: PC-3 prostate
[34] = tested on: RPMI-8226 leukemia
[35] = tested on: RXF 393 renal
[36] = tested on: SF-268 CNS
[37] = tested on: SF-295 CNS
[38] = tested on: SF-539 CNS
[39] = tested on: SK-MEL-2 melanoma
[40] = tested on: SK-MEL-28 melanoma
[41] = tested on: SK-MEL-5 melanoma
[42] = tested on: SK-OV-3 ovarian
[43] = tested on: SN12C renal
[44] = tested on: SNB-19 CNS
[45] = tested on: SNB-75 CNS
[46] = tested on: SR leukemia
[47] = tested on: SW-620 colon
[48] = tested on: T-47D breast
[49] = tested on: TK-10 renal
[50] = tested on: U251 CNS
[51] = tested on: UACC-257 melanoma
[52] = tested on: UACC-62 melanoma
[53] = tested on: UO-31 renal
[54] = tested on: HCT-15 colon
[55] = tested on: NCI-H522 lung
[56] = tested on: EKVX NSCLC
[57] = tested on: IGROV1 ovarian

Measured: TGI

CCOC(=O)C(=O)/C(=C/n1c(=S)[nH]c2ccc([N+](=O)[O-])cc21)C(=O)OCC
> 100 µM: [1] | [2] | [3] | [4] | [5] | [6] | [7] | [8] | [9] | [10] | [11] | [12] | [13] | [14] | [15] | [16] | [17] | [18] | [19] | [20] | [21] | [22] | [23] | [24] | [25] | [26] | [27] | [28] | [29] | [30] | [31] | [32] | [33] | [34] | [35] | [36] | [37] | [38] | [39] | [40] | [41] | [42] | [43] | [44] | [45] | [46] | [47] | [48] | [49] | [50] | [51] | [52] | [53]

CC1(CO)COC(C)(C)OC1
> 100 µM: [2] | [3] | [4] | [6] | [7] | [8] | [9] | [10] | [54] | [13] | [14] | [15] | [17] | [18] | [20] | [21] | [22] | [23] | [24] | [25] | [26] | [27] | [55] | [28] | [29] | [30] | [32] | [33] | [35] | [36] | [37] | [40] | [41] | [42] | [43] | [44] | [45] | [46] | [47] | [48] | [49] | [50] | [51] | [53]

CCOC(=O)c1csc(NC(=O)CN(C)C)n1
> 100 µM: [2] | [3] | [4] | [5] | [6] | [7] | [8] | [56] | [9] | [54] | [11] | [12] | [13] | [14] | [15] | [57] | [16] | [17] | [18] | [19] | [20] | [21] | [22] | [23] | [24] | [25] | [26] | [27] | [28] | [29] | [30] | [31] | [32] | [33] | [34] | [35] | [36] | [37] | [38] | [39] | [40] | [41] | [42] | [44] | [45] | [46] | [47] | [48] | [49] | [50] | [51] | [52] | [53]
